# Assays:
# [1] = tested on: maize plants (variety Burrus 616XLR); experiment: Maize field trial Carlyle, Ill.: grain yield, Colby; format: in vivo
# From the text: Maize was planted in 2009 at Carlyle, Ill., U.S.A. The variety Burrus 616XLR was planted at a conventional seeding rate and a row spacing of 76 cm. The trial was setup as a randomized bloc design with six replications. Plot size was 18 m^2. Pyraclostrobin was applied at developmental stage 34/37 (BBCH). Bacillus subtilis QST 713 (SERENADE® MAX) was applied to the maize plants at developmental stage 34/37 (BBCH) followed by a second application at developmental stage 55/57 (BBCH). Bacillus subtilis QST 713 (SERENADE® MAX) in combination with pyraclostrobin were applied as a tank mix at the developmental stage 34/37 (BBCH). The active ingredients were applied using commercial formulations SERENADE® MAX (14.3%, WP with 7.3×10^9 cfu/g) and HEADLINE® (250 g/L, EC). Total spray volume for foliar applications was 200 L/ha. […] At maturity the crop was harvested and grain yield was measured as t/ha (Table 10).
# The expected yield increase by the combination of the active compounds was estimated using Colby's formula (Colby, S. R., “Calculating Synergistic and Antagonistic Responses of Herbicide Combinations,” Weeds, 15, pp. 20-22, 1967) and compared with the observed yield increase. […]
# peas = experiment: Pea seed treatment, greenhouse plant fresh weight, Colby; format: in vivo; conditions: 12 days at 20° C., pyraclostrobin 5 g/100 kg seed, SERENADE MAX 173 g/100 kg seed
# Method: The active compounds were used applying commercially available formulations and diluted according to the concentrations/dose rates as stated in the respective data tables.
# Seed treatment was done to seeds of peas using the Hege Seed Treatment equipment in a sequential approach. Pyraclostrobin was applied with a volume of 850 mL slurry per 100 kg seeds. Afterwards the stated amount of SERENADE® MAX was dissolved in a total volume of 8.3 L water (amount for 100 kg seeds) and applied sequentially in ten steps with drying of the seeds in between. The compounds were used as commercial finished formulations and diluted with water to the stated concentration of the active compound.
# Seeds of peas were sown in soil (10 seeds/pot, 10 replications/treatment) and incubated in the greenhouse at 20° C. for 12 days. Plants were harvested and pooled per treatment and the plant fresh weight was determined.
# The expected plant fresh weights of active compound mixtures were determined using Colby's formula as defined above [R. S. Colby, “Calculating Synergistic and Antagonistic Responses of Herbicide Combinations,” Weeds 15, 20-22 (1967)] and compared with the observed plant fresh weights.
smiles,measurement,setting,value
"COC(=O)N(OC)c1ccccc1COc1ccn(-c2ccc(Cl)cc2)n1 [Pyraclostrobin, pyraclostrobin]",Grain Yield (t/ha),"[1]; maize, pyraclostrobin 0.44 L/ha solo (0.3 L/ha in mix) at BBCH 34/37, SERENADE MAX 3.0 kg/ha at 34/37 (solo also 55/57)",8.32 t/ha
same,Observed Yield Increase (t/ha),"[1]; vs untreated, same treatments",0.05 t/ha
same,Fresh Weight,peas,47 g
